The values below come from patent US20100227872A1, “PYRAZINE DERIVATIVES” (priority 2007, published 2010).

SMILES strings stand for the structures. pIC50: −log10 of the molar value.

Common to all, as to assay type: cell-based
The subject of assay [1] is tetrodotoxin-sensitive voltage-gated sodium channels including NaV1.2, NaV1.3 and NaV1.7. The assay is described as follows: TTX-S Assay in SHSY-5Y cell line (VIPR, veratridine opener). Conditions: read-out: TTX-S IC50, veratridine 50 μM as opener, average of replicates.
The target of assay [2] is T1, Human Nav1.5 (Homo sapiens, UniProt Q14524).
T1 construct: expressed in transfected cells; host or cells: HEK293
T1 sequence (Q14524 whole entry): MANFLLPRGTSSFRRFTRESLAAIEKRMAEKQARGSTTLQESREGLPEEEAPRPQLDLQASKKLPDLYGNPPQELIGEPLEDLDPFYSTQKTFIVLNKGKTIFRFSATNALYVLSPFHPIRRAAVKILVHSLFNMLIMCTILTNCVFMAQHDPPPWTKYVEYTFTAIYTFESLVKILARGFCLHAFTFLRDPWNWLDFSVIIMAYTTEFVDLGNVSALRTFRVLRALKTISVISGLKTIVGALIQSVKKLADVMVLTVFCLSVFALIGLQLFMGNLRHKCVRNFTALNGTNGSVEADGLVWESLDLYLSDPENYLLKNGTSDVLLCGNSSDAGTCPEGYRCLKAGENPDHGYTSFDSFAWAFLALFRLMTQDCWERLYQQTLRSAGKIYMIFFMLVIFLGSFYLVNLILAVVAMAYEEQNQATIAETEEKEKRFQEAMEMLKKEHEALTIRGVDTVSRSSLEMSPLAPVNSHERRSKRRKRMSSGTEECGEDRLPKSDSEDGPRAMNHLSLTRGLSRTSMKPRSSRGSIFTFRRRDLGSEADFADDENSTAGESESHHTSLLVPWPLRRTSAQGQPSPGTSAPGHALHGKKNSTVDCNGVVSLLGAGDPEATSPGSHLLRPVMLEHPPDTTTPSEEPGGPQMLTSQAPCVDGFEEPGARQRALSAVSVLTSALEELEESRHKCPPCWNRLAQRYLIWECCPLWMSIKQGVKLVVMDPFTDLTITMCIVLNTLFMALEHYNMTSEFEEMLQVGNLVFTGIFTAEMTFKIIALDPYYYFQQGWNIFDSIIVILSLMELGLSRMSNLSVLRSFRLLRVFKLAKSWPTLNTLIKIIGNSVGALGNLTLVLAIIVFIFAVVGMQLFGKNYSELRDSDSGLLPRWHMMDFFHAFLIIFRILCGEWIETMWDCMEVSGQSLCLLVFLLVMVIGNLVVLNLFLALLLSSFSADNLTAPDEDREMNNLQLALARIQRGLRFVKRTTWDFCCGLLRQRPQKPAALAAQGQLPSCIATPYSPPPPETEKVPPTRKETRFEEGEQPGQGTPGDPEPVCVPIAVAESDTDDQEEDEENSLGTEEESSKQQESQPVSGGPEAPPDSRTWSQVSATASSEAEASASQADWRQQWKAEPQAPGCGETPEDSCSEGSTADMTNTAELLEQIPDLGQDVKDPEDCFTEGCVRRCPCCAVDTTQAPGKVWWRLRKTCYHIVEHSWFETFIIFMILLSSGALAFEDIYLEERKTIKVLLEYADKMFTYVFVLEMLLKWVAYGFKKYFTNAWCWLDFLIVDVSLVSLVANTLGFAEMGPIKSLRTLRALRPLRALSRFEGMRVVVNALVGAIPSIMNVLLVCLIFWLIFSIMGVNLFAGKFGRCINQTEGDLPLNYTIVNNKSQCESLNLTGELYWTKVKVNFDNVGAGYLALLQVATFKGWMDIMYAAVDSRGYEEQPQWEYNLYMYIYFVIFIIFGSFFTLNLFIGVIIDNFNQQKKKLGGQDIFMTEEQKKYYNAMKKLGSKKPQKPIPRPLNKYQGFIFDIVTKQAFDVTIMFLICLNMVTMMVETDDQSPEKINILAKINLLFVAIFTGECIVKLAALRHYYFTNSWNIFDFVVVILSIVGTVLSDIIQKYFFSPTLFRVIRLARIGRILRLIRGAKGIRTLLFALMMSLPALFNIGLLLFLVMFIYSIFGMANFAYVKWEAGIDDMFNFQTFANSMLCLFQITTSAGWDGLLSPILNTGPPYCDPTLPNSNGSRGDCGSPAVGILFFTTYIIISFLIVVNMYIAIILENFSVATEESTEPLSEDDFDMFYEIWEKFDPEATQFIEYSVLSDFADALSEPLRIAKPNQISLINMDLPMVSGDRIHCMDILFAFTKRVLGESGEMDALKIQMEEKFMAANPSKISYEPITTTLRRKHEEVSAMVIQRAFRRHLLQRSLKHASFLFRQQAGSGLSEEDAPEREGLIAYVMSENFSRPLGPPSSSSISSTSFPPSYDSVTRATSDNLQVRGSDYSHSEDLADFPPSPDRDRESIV
Put plainly: Nav1.5 Assay (VIPR, as Nav1.8 assay). The following applies: HEK293 cells expressing Human Nav1.5; average of replicates. Here is the method: The Nav1.5 assay is performed in HEK293 cells expressing Human Nav1.5 in the same way as the Nav1.8 assay described above.

In assay [3] the target is T2, Human Nav1.8 (Homo sapiens, UniProt Q9Y5Y9).
T2 construct: expressed in transfected cells; host or cells: HEK293 (selected with Geneticine)
T2 sequence (Q9Y5Y9 whole entry): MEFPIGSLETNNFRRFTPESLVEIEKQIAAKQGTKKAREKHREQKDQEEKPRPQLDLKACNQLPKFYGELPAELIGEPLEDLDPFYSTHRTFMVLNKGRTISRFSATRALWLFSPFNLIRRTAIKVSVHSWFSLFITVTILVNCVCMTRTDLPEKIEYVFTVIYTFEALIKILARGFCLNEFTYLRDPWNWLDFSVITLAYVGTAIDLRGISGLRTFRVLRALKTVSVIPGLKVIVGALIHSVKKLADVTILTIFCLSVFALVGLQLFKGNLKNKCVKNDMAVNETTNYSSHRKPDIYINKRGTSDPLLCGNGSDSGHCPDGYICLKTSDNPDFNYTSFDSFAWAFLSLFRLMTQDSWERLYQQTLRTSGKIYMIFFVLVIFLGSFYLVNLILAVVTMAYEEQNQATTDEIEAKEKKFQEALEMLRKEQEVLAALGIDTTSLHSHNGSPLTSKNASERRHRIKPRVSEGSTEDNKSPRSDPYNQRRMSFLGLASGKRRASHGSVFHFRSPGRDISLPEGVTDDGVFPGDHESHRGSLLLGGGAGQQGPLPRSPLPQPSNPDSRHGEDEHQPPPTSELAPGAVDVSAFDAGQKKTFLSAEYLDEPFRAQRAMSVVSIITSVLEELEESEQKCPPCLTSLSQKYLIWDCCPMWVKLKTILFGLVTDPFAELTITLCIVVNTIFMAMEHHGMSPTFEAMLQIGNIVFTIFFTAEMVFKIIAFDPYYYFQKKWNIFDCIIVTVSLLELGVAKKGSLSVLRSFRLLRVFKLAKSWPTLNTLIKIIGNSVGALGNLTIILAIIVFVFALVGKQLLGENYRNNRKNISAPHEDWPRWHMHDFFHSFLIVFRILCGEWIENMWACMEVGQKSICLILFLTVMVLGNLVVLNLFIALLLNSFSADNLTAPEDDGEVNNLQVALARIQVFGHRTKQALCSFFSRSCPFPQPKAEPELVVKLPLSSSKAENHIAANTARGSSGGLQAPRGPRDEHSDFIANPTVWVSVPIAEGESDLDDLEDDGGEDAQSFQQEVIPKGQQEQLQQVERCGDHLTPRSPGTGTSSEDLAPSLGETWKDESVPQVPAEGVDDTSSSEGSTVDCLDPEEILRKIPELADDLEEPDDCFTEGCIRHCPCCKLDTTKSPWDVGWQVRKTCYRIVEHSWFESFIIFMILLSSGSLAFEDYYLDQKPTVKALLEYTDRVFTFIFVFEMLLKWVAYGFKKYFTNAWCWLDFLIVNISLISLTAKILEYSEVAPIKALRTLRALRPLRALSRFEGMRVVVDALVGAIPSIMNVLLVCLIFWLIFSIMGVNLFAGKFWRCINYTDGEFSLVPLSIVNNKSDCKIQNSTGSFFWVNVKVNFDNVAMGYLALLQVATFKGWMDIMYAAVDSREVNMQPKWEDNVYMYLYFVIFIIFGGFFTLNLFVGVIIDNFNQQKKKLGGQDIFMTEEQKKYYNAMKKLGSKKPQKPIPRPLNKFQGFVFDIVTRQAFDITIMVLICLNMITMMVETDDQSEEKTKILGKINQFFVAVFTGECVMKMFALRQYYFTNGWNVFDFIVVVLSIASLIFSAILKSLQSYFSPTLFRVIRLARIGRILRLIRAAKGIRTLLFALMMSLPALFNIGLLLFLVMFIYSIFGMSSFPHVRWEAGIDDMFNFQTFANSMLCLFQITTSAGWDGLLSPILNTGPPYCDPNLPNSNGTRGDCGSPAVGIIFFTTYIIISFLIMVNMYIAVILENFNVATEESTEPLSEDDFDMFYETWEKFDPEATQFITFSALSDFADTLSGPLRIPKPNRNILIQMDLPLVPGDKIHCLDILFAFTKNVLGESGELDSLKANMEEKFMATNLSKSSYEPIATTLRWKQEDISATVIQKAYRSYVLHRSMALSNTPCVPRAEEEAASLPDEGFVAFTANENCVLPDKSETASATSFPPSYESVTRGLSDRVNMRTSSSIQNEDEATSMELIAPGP
Put plainly: VIPR Assay for Nav1.8 Compounds (FRET membrane potential, deltamethrin opener). Conditions: HEK293 cells expressing Human Nav1.8; deltamethrin as opener; average of replicates.

As to `Nc1nc(NC(=O)c2conc2C(F)(F)F)cnc1-c1ccccc1OC(F)(F)F` [Example 12, N-{6-Amino-5-[2-(trifluoromethoxy)phenyl]pyrazin-2-yl}-3-(trifluoromethyl)isoxazole-4-carboxamide], the values for the pIC50 in assay [1], in assay [2] and in assay [3] were 4.68, below 4.49 and 5.55, respectively.

For the molecule `CCOc1ccc(OC(F)(F)F)c(-c2ncc(NC(=O)c3ccnn3C)nc2N)c1` [Example 16, N-{6-Amino-5-[5-ethoxy-2-(trifluoromethoxy)phenyl]pyrazin-2-yl}-1-methyl-1H-pyrazole-5-carboxamide], the pIC50 (commonly −log10 of the IC50, conventionally taken in molar units) in assay [2] is below 4.49; in assay [3], 4.72.

In the case of `Cc1nocc1C(=O)Nc1cnc(-c2ccccc2C(F)(F)F)c(N)n1` [Example 2, N-{6-Amino-5-[2-(trifluoromethyl)phenyl]pyrazin-2-yl}-3-methylisoxazole-4-carboxamide], the pIC50 was below 4.49 in assay [1] and 5.06 in assay [3].

As to `Cc1nocc1C(=O)Nc1cnc(-c2cc(Cl)ccc2OC(F)(F)F)c(N)n1` [Example 3, N-{6-Amino-5-[5-chloro-2-(trifluoromethoxy)phenyl]pyrazin-2-yl}-3-methylisoxazole-4-carboxamide], the pIC50 in assay [1] is 4.80; in assay [2], below 4.49; in assay [3], 5.37.

Take `Cc1nocc1C(=O)Nc1cnc(-c2cc(F)ccc2OC(F)(F)F)c(N)n1` [Example 13, N-{6-Amino-5-[5-fluoro-2-(trifluoromethoxy)phenyl]pyrazin-2-yl}-3-methylisoxazole-4-carboxamide]: the pIC50 in assay [1] is below 4.49; in assay [2], below 4.49; in assay [3], 5.42.

In the case of `COCc1nocc1C(=O)Nc1cnc(-c2cc(Cl)ccc2OC(F)(F)F)c(N)n1` [Example 7], the pIC50 in assay [1] is 4.77; in assay [2] it was 4.68; in assay [3] it was 5.34.

Take `COCc1oncc1C(=O)Nc1cnc(-c2ccccc2OC(F)(F)F)c(N)n1` [Example 9, N-{6-Amino-5-[2-(trifluoromethoxy)phenyl]pyrazin-2-yl}-5-(methoxymethyl)isoxazole-4-carboxamide]: the values for the pIC50 in assay [1], in assay [2] and in assay [3] were 4.52, below 4.49 and 4.70, respectively.

For `COCc1nocc1C(=O)Nc1cnc(-c2cc(F)ccc2C(F)(F)F)c(N)n1` [Example 8, N-{6-Amino-5-[5-fluoro-2-(trifluoromethyl)phenyl]pyrazin-2-yl}-3-(methoxymethyl)isoxazole-4-carboxamide], the results for the pIC50 in assay [2] and in assay [3] were below 4.49 and 4.96, respectively.

As to `CC(C)n1nccc1C(=O)Nc1cnc(-c2ccccc2OC(F)(F)F)c(N)n1` [Example 5, N-{6-Amino-5-[2-(trifluoromethoxy)phenyl]pyrazin-2-v1}-1-isopropyl-1H-pyrazole-5-carboxamide], the pIC50 in assay [1] was 4.54; in assay [2], below 4.49; in assay [3] it was 4.72.

Turning to `COCc1nocc1C(=O)Nc1cnc(-c2ccccc2OC(F)(F)F)c(N)n1` [Example 6, N-{6-Amino-5-[2-(trifluoromethoxy)phenyl]pyrazin-2-yl}-3-(methoxymethyl)isoxazole-4-carboxamide], the pIC50 in assay [1] is 4.72; in assay [2], below 4.49; in assay [3] it was 4.70.

As to `CCOc1ccc(OC(F)(F)F)c(-c2ncc(NC(=O)c3conc3C)nc2N)c1` [Example 17, N-(6-Amino-5-[5-ethoxy-2-{trifluoromethoxy)phenyl]pyrazin-2-yl}-3-methylisoxazole-4-carboxamide], the pIC50 in assay [2] was below 4.49; in assay [3] it was 5.72.

Regarding `Cn1nccc1C(=O)Nc1cnc(-c2cc(F)ccc2OC(F)(F)F)c(N)n1` [Example 15], the pIC50 in assay [1] was below 4.49; in assay [2] it was below 4.49; in assay [3] it was 4.80.

Consider `Cc1nocc1C(=O)Nc1cnc(-c2ccccc2OC(F)(F)F)c(N)n1` [Example 1, N-{6-Amino-5-[2-(trifluoromethoxy)phenyl]pyrazin-2-yl}-3-methylisoxazole-4-carboxamide], for which the pIC50 in assay [1] was 4.52; in assay [2], below 4.49; in assay [3], 5.44.

With `Nc1nc(NC(=O)c2conc2C(F)(F)F)cnc1-c1cc(F)ccc1C(F)(F)F` [Example 14, N-{6-Amino-5-[5-fluoro-2-(trifluoromethyl)phenyl]ovrazin-2-yl}-3-trifluoromethylisoxazole-4-carboxamide], the figures for the pIC50 in assay [1], in assay [2] and in assay [3] were 4.51, below 4.49 and 5.60, respectively.

As for `Cc1nocc1C(=O)Nc1cnc(-c2cc(F)ccc2C(F)(F)F)c(N)n1` [Example 10, N-{6-amino-5-[5-fluoro-2-(trifluoromethyl)phenyl]pyrazin-2-yl}-3-methylisoxazole-4-carboxamide], the negative-log IC50 (pIC50) in assay [1] is below 4.49; in assay [2], below 4.49; in assay [3] it was 5.33.

For the molecule `Cn1nccc1C(=O)Nc1cnc(-c2cc(Cl)ccc2OC(F)(F)F)c(N)n1` [Example 11, N-{6-Amino-5-[5-chloro-2-(trifluoromethoxy)phenyl]pyrazin-2-yl}-methyl-1H-pyrazole-5-carboxamide], the values for the pIC50 in assay [1], in assay [2] and in assay [3] were below 4.49, below 4.49 and 4.92, respectively.

For the molecule `CCn1nccc1C(=O)Nc1cnc(-c2ccccc2OC(F)(F)F)c(N)n1` [Example 4, N-{6-Amino-5-[2-(trifluoromethoxy)phenyl]pyrazin-2-yl}-1-ethyl-1H-pyrazole-5-carboxamide], the pIC50 is below 4.49 in assay [1], below 4.49 in assay [2] and 4.57 in assay [3].
